Experimental data: patent publication US11053204B2, “Pyrimidinyloxy benzene derivatives as herbicides” (FMC Corporation, priority 2015, dated 2021)

Legend:
Type in all cases: in vivo
[1] = test system: oat, wild (wild oat Avena fatua); assay: Test C postemergence, plant response rating; settings: for Plant response rating, Oat, Wild: scale 0 to 100; for Oat, Wild plant response rating: scale 0 to 100 (0 no effect, 100 complete control)
Outline: (§1)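 Preemergence: seeds sown in loam–sand blend or silt loam and sprayed with test chemicals in a non-phytotoxic surfactant-containing solvent. Postemergence: potted plants at 2–18 cm (1–4-leaf stage) sprayed with the same formulation. After 13–15 d in greenhouse, visual rating versus controls on 0 (no effect) to 100 (complete control) scale.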

[2] = test system: chickweed (common chickweed, Stellaria media); assay: Test C postemergence, plant response rating; settings: for Plant response rating, Chickweed: scale 0 to 100; for Chickweed plant response rating: scale 0 to 100 (0 no effect, 100 complete control)
Outline: as §1

[3] = test system: waterhemp (common waterhemp, Amaranthus rudis); assay: Test C postemergence, plant response rating; settings: for Plant response rating, Waterhemp: scale 0 to 100; for Waterhemp plant response rating: scale 0 to 100 (0 no effect, 100 complete control)
Outline: as §1

soybean (Glycine max) = assay: Test C postemergence, plant response rating; settings: for Plant response rating, Soybean: scale 0 to 100; for Soybean plant response rating: scale 0 to 100 (0 no effect, 100 complete control)
Outline: as §1

[4] = test system: lambsquarters (Chenopodium album); assay: Test C postemergence, plant response rating; settings: for Plant response rating, Lambsquarters: scale 0 to 100; for Lambsquarters plant response rating: scale 0 to 100 (0 no effect, 100 complete control)
Outline: as §1

[5] = test system: foxtail, giant (giant foxtail, Setaria faberii); assay: Test C postemergence, plant response rating; settings: for Plant response rating, Foxtail, Giant: scale 0 to 100; for Foxtail, Giant plant response rating: scale 0 to 100 (0 no effect, 100 complete control)
Outline: as §1

[6] = test system: velvetleaf (Abutilon theophrasti); assay: Test C postemergence, plant response rating; settings: for Plant response rating, Velvetleaf: scale 0 to 100; for Velvetleaf plant response rating: scale 0 to 100 (0 no effect, 100 complete control)
Outline: as §1

[7] = test system: ragweed (common ragweed, Ambrosia elatior); assay: Test C postemergence, plant response rating; settings: for Plant response rating, Ragweed: scale 0 to 100; for Ragweed plant response rating: scale 0 to 100 (0 no effect, 100 complete control)
Outline: as §1

[8] = test system: ryegrass, Italian (Italian ryegrass, Lolium multiflorum); assay: Test C postemergence, plant response rating; settings: for Plant response rating, Ryegrass, Italian: scale 0 to 100; for Ryegrass, Italian plant response rating: scale 0 to 100 (0 no effect, 100 complete control)
Outline: as §1

[9] = test system: blackgrass (Alopecurus myosuroides); assay: Test A postemergence, visual injury rating; settings: 0 is no effect, 100 is complete control
Outline: (§2)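 Injury scores run from 0, no effect, to 100, complete control, judged by eye against untreated plants roughly 10 days after treatment. Chemicals carried a surfactant in a non-phytotoxic solvent and went onto loam–sand soil preemergence or onto one- to two-leaf seedlings postemergence.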

[10] = test system: Italian ryegrass (Lolium multiflorum); assay: Test A postemergence, visual injury rating; settings: 0 is no effect, 100 is complete control
Outline: as §2

[11] = test system: pigweed (Amaranthus retroflexus); assay: Test A postemergence, visual injury rating; settings: 0 is no effect, 100 is complete control
Outline: as §2

[12] = test system: giant foxtail (Setaria faberii); assay: Test A postemergence, visual injury rating; settings: 0 is no effect, 100 is complete control
Outline: as §2

[13] = test system: barnyardgrass (Echinochloa crus-galli); assay: Test A postemergence, visual injury rating; settings: 0 is no effect, 100 is complete control
Outline: as §2

kochia (Kochia scoparia) = assay: Test A postemergence, visual injury rating; settings: 0 is no effect, 100 is complete control
Outline: as §2

[14] = test system: wheat (Triticum aestivum); assay: Test A postemergence, visual injury rating; settings: 0 is no effect, 100 is complete control
Outline: as §2

corn (Zea mays) = assay: Test A postemergence, visual injury rating; settings: 0 is no effect, 100 is complete control
Outline: as §2

[15] = test system: galium (catchweed bedstraw, Galium aparine); assay: Test A postemergence, visual injury rating; settings: 0 is no effect, 100 is complete control
Outline: as §2

[16] = test system: ragweed (common ragweed, Ambrosia elatior); assay: Test A postemergence, visual injury rating; settings: 0 is no effect, 100 is complete control
Outline: as §2

[17] = 125 g ai/ha, 0 to 100 scale, approximately 10 days

N#Cc1cccc(Oc2ncc(Cl)cn2)c1CCCC(F)(F)F [Compound 72]
Plant response rating, Oat, Wild ([1]; 16 g ai/ha): 5
Plant response rating, Oat, Wild ([1]; 31 g ai/ha): 5
Oat, Wild plant response rating ([1]; 62 g ai/ha): 5
Oat, Wild plant response rating ([1]; 125 g ai/ha): 10
Plant response rating, Chickweed ([2]; 16 g ai/ha): 65
Plant response rating, Chickweed ([2]; 31 g ai/ha): 85
Chickweed plant response rating ([2]; 62 g ai/ha): 90
Chickweed plant response rating ([2]; 125 g ai/ha): 98
Plant response rating, Waterhemp ([3]; 16 g ai/ha): 85
Plant response rating, Waterhemp ([3]; 31 g ai/ha): 80
Waterhemp plant response rating ([3]; 62 g ai/ha): 90
Waterhemp plant response rating ([3]; 125 g ai/ha): 90
Plant response rating, Soybean (soybean (Glycine max); 16 g ai/ha): 60
Plant response rating, Soybean (soybean (Glycine max); 31 g ai/ha): 70
Soybean plant response rating (soybean (Glycine max); 62 g ai/ha): 40
Soybean plant response rating (soybean (Glycine max); 125 g ai/ha): 70
Plant response rating, Lambsquarters ([4]; 16 g ai/ha): 75
Plant response rating, Lambsquarters ([4]; 31 g ai/ha): 85
Lambsquarters plant response rating ([4]; 62 g ai/ha): 75
Lambsquarters plant response rating ([4]; 125 g ai/ha): 85
Plant response rating, Foxtail, Giant ([5]; 16 g ai/ha): 30
Plant response rating, Foxtail, Giant ([5]; 31 g ai/ha): 30
Foxtail, Giant plant response rating ([5]; 62 g ai/ha): 20
Foxtail, Giant plant response rating ([5]; 125 g ai/ha): 20
Plant response rating, Velvetleaf ([6]; 16 g ai/ha): 40
Plant response rating, Velvetleaf ([6]; 31 g ai/ha): 50
Velvetleaf plant response rating ([6]; 62 g ai/ha): 40
Velvetleaf plant response rating ([6]; 125 g ai/ha): 70
Plant response rating, Ragweed ([7]; 16 g ai/ha): 35
Plant response rating, Ragweed ([7]; 31 g ai/ha): 50
Ragweed plant response rating ([7]; 62 g ai/ha): 40
Ragweed plant response rating ([7]; 125 g ai/ha): 75
Plant response rating, Ryegrass, Italian ([8]; 16 g ai/ha): 5
Plant response rating, Ryegrass, Italian ([8]; 31 g ai/ha): 5
Ryegrass, Italian plant response rating ([8]; 62 g ai/ha): 10
Ryegrass, Italian plant response rating ([8]; 125 g ai/ha): 15
Blackgrass plant response rating (0 to 100 scale) ([9]; 125 g ai/ha): 30
Blackgrass plant response rating (0 to 100 scale) ([9]; 500 g ai/ha): 50
Ryegrass, Italian plant response rating [10, 17]: 10
Ryegrass, Italian plant response rating (0 to 100 scale) ([10]; 500 g ai/ha): 40
Pigweed plant response rating [11, 17]: 100
Pigweed plant response rating (0 to 100 scale) ([11]; 500 g ai/ha): 100
Foxtail, Giant plant response rating (0 to 100 scale) ([12]; 125 g ai/ha): 70
Foxtail, Giant plant response rating (0 to 100 scale) ([12]; 500 g ai/ha): 100
Barnyardgrass plant response rating (0 to 100 scale) ([13]; 125 g ai/ha): 80
Barnyardgrass plant response rating (0 to 100 scale) ([13]; 500 g ai/ha): 100
Kochia plant response rating (kochia (Kochia scoparia); [17]): 100
Kochia plant response rating (0 to 100 scale) (kochia (Kochia scoparia); 500 g ai/ha): 100
Wheat plant response rating [14, 17]: 10
Wheat plant response rating (0 to 100 scale) ([14]; 500 g ai/ha): 40
Corn plant response rating (0 to 100 scale) (corn (Zea mays); 125 g ai/ha): 50
Corn plant response rating (0 to 100 scale) (corn (Zea mays); 500 g ai/ha): 60
Galium plant response rating (0 to 100 scale) ([15]; 125 g ai/ha): 80
Galium plant response rating (0 to 100 scale) ([15]; 500 g ai/ha): 100
Ragweed plant response rating [16, 17]: 10
Ragweed plant response rating (0 to 100 scale) ([16]; 500 g ai/ha): 30
